Target: T1, hDGAT-1 (Homo sapiens, UniProt O75907)
T1 construct: host or cells: Sf9 insect cells (baculovirus); microsomal fraction
T1 sequence (O75907 1-488): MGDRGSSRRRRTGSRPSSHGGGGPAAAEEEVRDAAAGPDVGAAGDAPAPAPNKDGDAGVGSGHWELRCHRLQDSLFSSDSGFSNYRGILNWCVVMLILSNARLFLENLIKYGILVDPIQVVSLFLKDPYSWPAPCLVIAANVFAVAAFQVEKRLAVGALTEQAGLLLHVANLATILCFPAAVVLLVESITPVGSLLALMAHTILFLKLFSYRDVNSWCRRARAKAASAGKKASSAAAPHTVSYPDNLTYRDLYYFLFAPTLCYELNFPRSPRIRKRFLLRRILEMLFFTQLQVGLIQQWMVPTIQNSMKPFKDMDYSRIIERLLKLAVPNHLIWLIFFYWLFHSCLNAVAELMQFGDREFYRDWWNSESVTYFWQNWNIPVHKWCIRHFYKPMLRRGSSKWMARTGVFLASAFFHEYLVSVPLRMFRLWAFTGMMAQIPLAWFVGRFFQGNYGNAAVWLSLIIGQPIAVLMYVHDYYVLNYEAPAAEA
Assay: In-vitro DGAT-1 assay (14C oleoyl CoA, microsomes from Sf9 cells)
Assay type: biochemical
Conditions: 1 μM compound; hDGAT-1 containing microsomes from Sf9 cells
Procedure: In-Vitro Protocol for DGAT-1 Assay
Sf9 Culture and Treatment
Sf9 cells were grown in T25 flasks containing Graces's Insect media (Invitrogen, US) with 10% FBS (Hyclone, US) with antibiotic (100 units/mL penicillin, 100 μg/mL streptomycin sulphate, 0.25 μg/mL amphotericin B as Fungizone) grown in a 27° C. incubator.
hDGAT-10RF expression clone (RZPDo839C09146 in pDEST vector) was obtained from RZPD, Germany. hDGAT-1 bacmid DNA was obtained by transformation of the hDGAT expression clone into DH10Bac E. coli competent cells. Approximately 1 μg of hDGAT-1 bacmid DNA was infected into Sf9 cells with Cellfectin (Invitrogen, US) reagent. Following infection, Sf9 cells were incubated at 27° C. for 30 minutes. Five hours after infection, the media was replaced with growth media containing antibiotic (100 units/mL penicillin, 100 μg/mL streptomycin sulphate, 0.25 μg/mL amphotericin B as Fungizone) and incubated at 27° C. for 72 hours. The supernatant containing the virus was centrifuged at 1500 g for 5 minutes, passed through 0.22 μm filter, and subsequently stored at 4° C. The virus was further amplified three more times by re-infection of Sf9 cells and the viral titer was determined by plaque assay.
Preparation of DGAT-1 Microsomes from Sf9 Cells
Sf9 cells were seeded in spinner flasks on day 0 at a cell density of 1×10^6 and infected on day 1 with hDGAT-1 baculovirus at a multiplicity of infection (MOI) of 5 and a cell density of 2×10^6. On day 3 (or 66-72 hours), cells were harvested and centrifuged at 2500 g for 10 minutes. Pellet was resuspended in lysis buffer (100 mM sucrose, 50 mM KCl, 40 mM KH2PO4, 30 mM EDTA, pH 7.2) and passed through 21-gauge needle approximately 10 times. […] The supernatant was subjected to centrifugation at 35,000 rpm in a Beckman Ti-45 rotor at 4° C. for 1 hour. The resultant pellet containing the microsomes were resuspended overnight in 1 mL of lysis buffer and total protein concentration was estimated using Bradford Reagent (Sigma, US). Microsomes were aliquoted and stored at −80° C.
Measurement of DGAT-1 Activity
Frozen aliquots of hDGAT-1 containing microsomes were thawed (5-10 mg/mL total protein) on ice and diluted to a working stock of 1 mg/mL with DGAT Assay Buffer (DAB).
The assay was performed in duplicates in a reaction volume of 100 μL. […] Procedure:
The reaction was started by the addition of […] of 1 mg/mL of microsomes (iv) to the mixture and incubated at 37° C. for 10 minutes. […] The mixture was vortexed and the triglycerides formed were extracted into the organic heptane phase.

## CC(C)C(NC(=O)c1ncc(-c2ccc(NC(=O)Nc3cccc(C(F)(F)F)c3)cc2)o1)C(=O)O (centres unmarked) [Example 2, 3-Methyl-2-(5-(4-(3-(3-(trifluoromethyl)phenyl)ureido)phenyl)oxazole-2-carboxamido)butanoic acid]
  inhibition at 1 µM: 50 to 100%

## Cc1ccc(NC(=O)Nc2ccc(-c3cnc(C(=O)NC(C(=O)O)C(C)C)o3)cc2)cc1C (centres unmarked) [Example 6, 2-(5-(4-(3-(3,4-dimethylphenyl)ureido)phenyl)oxazole-2-carboxamido)-3-methylbutanoic acid]
  inhibition at 1 µM: 50 to 100%

## CC(C)C(NC(=O)c1ncc(-c2ccc(NC(=O)Nc3ccc(Cl)cc3Oc3ccccc3)cc2)o1)C(=O)O (centres unmarked) [Example 8, 2-(5-(4-(3-(4-chloro-2-phenoxyphenyl)ureido)phenyl)oxazole-2-carboxamido)-3-methylbutanoic acid]
  inhibition at 1 µM: 50 to 100%

## CC(C)C(NC(=O)c1nc(-c2ccc(NC(=O)Nc3ccccc3Cl)cc2)cs1)C(=O)O (centres unmarked) [Example 24, 2-(4-(4-(3-(2-Chlorophenyl)ureido)phenyl)thiazole-2-carboxamido)-3-methylbutanoic acid]
  inhibition at 1 µM: 0 to 50%

## CC(C)C(NC(=O)c1nc(-c2ccc(NC(=O)c3ccc(C(C)(C)C)cc3)cc2)cs1)C(=O)O (centres unmarked) [Example 28, 2-(4-(4-(4-tert-butylbenzamido)phenyl)thiazole-2-carboxamido)-3-methylbutanoic acid]
  inhibition at 1 µM: 0 to 50%

## CC(C)C(NC(=O)c1nc(-c2ccc(NC(=O)Nc3ccc(C(F)(F)F)cc3)cc2)cs1)C(=O)O (centres unmarked) [Example 30, 3-methyl-2-(4-(4-(3-(4-(trifluoromethyl)phenyl)ureido)phenyl)thiazole-2-carboxamido)butanoic acid]
  inhibition at 1 µM: 0 to 50%

## Cc1ccc(NC(=O)Nc2ccc(-c3csc(C(=O)NC(C(=O)O)C(C)C)n3)cc2)cc1C (centres unmarked) [Example 32, 2-(4-(4-(3-(3,4-Dimethylphenyl)ureido)phenyl)thiazole-2-carboxamido)-3-methylbutanoic acid]
  inhibition at 1 µM: 0 to 50%

## CC(C)C(NC(=O)c1nc(-c2ccc(NC(=O)Nc3ccc(Cl)cc3Oc3ccccc3)cc2)cs1)C(=O)O (centres unmarked) [Example 34, 2-(4-(4-(3-(4-chloro-2-phenoxyphenyl)ureido)phenyl)thiazole-2-carboxamido)-3-methylbutanoic acid]
  inhibition at 1 µM: 0 to 50%

## CC(C)C(NC(=O)c1nc(-c2ccc(NC(=O)c3ccc(-c4ccccc4)cc3)cc2)cs1)C(=O)O (centres unmarked) [Example 36, 2-(4-(4-Biphenyl-4-ylcarboxamidophenyl)thiazole-2-carboxamido)-3-methylbutanoic acid]
  % inhibition of hDGAT-1 at 1 μM: + (>0% Inhibition ≦50)

## CCCCCc1ccc(C(=O)Nc2ccc(-c3csc(C(=O)NC(C(=O)O)C(C)C)n3)cc2)cc1 (centres unmarked) [Example 38, 3-Methyl-2-(4-(4-(4-pentylbenzamido)phenyl)thiazole-2-carboxamido) butanoic acid]
  inhibition at 1 µM: 0 to 50%

## CCCCCc1ccc(C(=O)Nc2ccc(-c3cnc(C(=O)N(C)C(C(=O)O)C(C)C)s3)cc2)cc1 (centres unmarked) [Example 40, 3-Methyl-2-(N-methyl-5-(4-(4-pentylbenzamido)phenyl)thiazole-2-carboxamido)butanoic acid]
  inhibition at 1 µM: 50 to 100%

## CC(C)C(C(=O)O)N(C)C(=O)c1ncc(-c2ccc(NC(=O)c3ccc(-c4ccccc4)cc3)cc2)s1 (centres unmarked) [Example 42, 2-(5-(4-Biphenyl-4-ylcarboxamidophenyl)-N-methylthiazole-2-carboxamido)-3-methylbutanoic acid]
  % inhibition of hDGAT-1 at 1 μM: ++ (>50% Inhibition ≦100)

## CC(C)C(C(=O)O)N(C)C(=O)c1ncc(-c2ccc(NC(=O)c3ccc(C(C)(C)C)cc3)cc2)s1 (centres unmarked) [Example 44, 2-(5-(4-(4-tert-Butylbenzamido)phenyl)-N-methylthiazole-2-carboxamido)-3-methylbutanoic acid]
  inhibition at 1 µM: 50 to 100%

## CC(C)C(NC(=O)c1nc(-c2ccc(NS(=O)(=O)c3ccc(Cl)cc3Cl)cc2)cs1)C(=O)O (centres unmarked) [Example 46, 2-(4-(4-(2,4-Dichlorophenylsulfonamido)phenyl)thiazole-2-carboxamido)-3-methylbutanoic acid]
  inhibition at 1 µM: 0 to 50%

## CC(C)C(NC(=O)c1ncc(-c2ccc(NC(=O)c3ccc(-c4ccccc4)cc3)cc2)s1)C(=O)O (centres unmarked) [Example 48, 2-(5-(4-biphenyl-4-ylcarboxamidophenyl)thiazole-2-carboxamido)-3-methylbutanoic acid]
  % inhibition of hDGAT-1 at 1 μM: ++ (>50% Inhibition ≦100)

## CC(C)C(NC(=O)c1ncc(-c2ccc(NC(=O)C3Cc4ccccc4C3)cc2)s1)C(=O)O (centres unmarked) [Example 52, 2-(5-(4-(2,3-dihydro-1H-indene-2-carboxamido)phenyl)thiazole-2-carboxamido)-3-methylbutanoic acid]
  inhibition at 1 µM: 50 to 100%

## CC(C)[C@H](NC(=O)c1ncc(-c2ccc(NC(=O)Nc3ccc4c(c3)CCC4)cc2)o1)C(=O)O [Example 56, (S)-2-(5-(4-(3-(2,3-dihydro-1H-inden-5-yl)ureido)phenyl)oxazole-2-carboxamido)-3-methylbutanoic acid]
  inhibition at 1 µM: 50 to 100%

## CC(C)[C@H](NC(=O)c1ncc(-c2ccc(NC(=O)Nc3ccc(Cl)cc3)cc2)o1)C(=O)O [Example 58, (S)-2-(5-(4-(3-(4-chlorophenyl)ureido)phenyl)oxazole-2-carboxamido)-3-methylbutanoic acid]
  inhibition at 1 µM: 50 to 100%

## CC(C)[C@H](NC(=O)c1ncc(-c2ccc(NC(=O)Nc3ccc(C(F)(F)F)cc3Cl)cc2)o1)C(=O)O [Example 62, (S)-2-(5-(4-(3-(2-chloro-4-(trifluoromethyl)phenyl)ureido)phenyl)oxazole-2-carboxamido)-3-methylbutanoic acid]
  inhibition at 1 µM: 50 to 100%

## CC(C)[C@H](NC(=O)c1ncc(-c2ccc(NC(=O)Nc3ccc(Cl)cc3F)cc2)o1)C(=O)O [Example 64, (S)-2-(5-(4-(3-(4-chloro-2-fluorophenyl)ureido)phenyl)oxazole-2-carboxamido)-3-methylbutanoic acid]
  inhibition at 1 µM: 50 to 100%

## CC(C)[C@H](NC(=O)c1ncc(-c2ccc(NC(=O)Nc3ccc(Cl)cc3)cc2)s1)C(=O)O [Example 68, (S)-2-(5-(4-(3-(4-chlorophenyl)ureido)phenyl)thiazole-2-carboxamido)-3-methylbutanoic acid]
  inhibition at 1 µM: 50 to 100%

## CC(C)[C@H](NC(=O)c1ncc(-c2ccc(NC(=O)Nc3cccc(Cl)c3)cc2)s1)C(=O)O [Example 70, (S)-2-(5-(4-(3-(3-chlorophenyl)ureido)phenyl)thiazole-2-carboxamido)-3-methylbutanoic acid]
  inhibition at 1 µM: 50 to 100%

## CC(C)[C@H](NC(=O)c1ncc(-c2ccc(NC(=O)Nc3ccc(C(F)(F)F)cc3Cl)cc2)s1)C(=O)O [Example 72, (S)-2-(5-(4-(3-(2-chloro-4-(trifluoromethyl)phenyl)ureido)phenyl)thiazole-2-carboxamido)-3-methylbutanoic acid]
  inhibition at 1 µM: 50 to 100%

## CC(C)[C@H](NC(=O)c1ncc(-c2ccc(NC(=O)Nc3ccc(Cl)cc3F)cc2)s1)C(=O)O [Example 74, (S)-2-(5-(4-(3-(4-chloro-2-fluorophenyl)ureido)phenyl)thiazole-2-carboxamido)-3-methylbutanoic acid]
  inhibition at 1 µM: 50 to 100%

## CC(C)C(NC(=O)c1ncc(-c2ccc(NCc3ccc(F)cc3)cc2)s1)C(=O)O (centres unmarked) [Example 91, 2-(5-(4-((4-Fluorobenzyl)amino)phenyl)thiazole-2-carboxamido)-3-methylbutanoic acid]
  inhibition at 1 µM: 0 to 50%

## CC(C)C(NC(=O)c1ncc(-c2ccc(N(Cc3ccccc3)Cc3ccccc3)cc2)s1)C(=O)O (centres unmarked) [Example 93, 2-(5-(4-(dibenzylamino)phenyl)thiazole-2-carboxamido)-3-methylbutanoic acid]
  inhibition at 1 µM: 0 to 50%

From US8722901B2, “Carboxy oxazole or thiazole compounds as DGAT-1 inhibitors useful for the treatment of obesity” (Piramal Enterprises Limited, priority 2009, dated 2014)
